Experimental data from PubChem BioAssay (NCI).
Values joined by “and” are separate entries in the source; they are usually repeats but may differ in a detail not shown here. Equal values may be shown once.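 Method: 48-hour compound exposure of cells in 96-well plates, five concentrations, linear interpolation of endpoints. GI50 is the concentration that inhibits growth by half. Definition used: TGI = concentration required for complete inhibition of growth.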

Each compound was assayed on HCC-2998 colon (assay: NCI-60 cell line screen, 48 h).
Compound `NCC1Nc2ccccc2[C@@H](O)C1O` (some centres not stated) has a TGI of over 100 µM. `OC[C@H]1CCCC1O` (some centres not stated) gave a TGI of over 100 µM. With `Cc1cccc(N2CCN(C(=S)c3ccc4c(c3)OCO4)CC2)c1` the GI50 was 3.76 µM and the TGI was over 100 µM. For `Cc1ccc(C2=C(c3ccccc3)C(Br)(c3ccc(C)cc3)C(c3ccccc3)=C2c2ccc(C)cc2)cc1`, the TGI was over 100 µM. Work on `N#CCN1C(=O)c2cccc3cc([N+](=O)[O-])cc(c23)C1=O` yielded a TGI of over 100 µM. Compound `CC(C)C(Nc1c2ccccc2nc2ccccc12)C(=O)O` (configuration not stated) has a TGI of over 100 µM. With `COc1cc2c(cc1OC)C(CC(=O)NN=C(C)C)NCC2` (configuration not stated) the TGI was over 100 µM. For `COC(=O)/C(=N\Nc1nnc(C)n1N)C(C#N)c1ccc(Cl)cc1` (configuration not stated), the TGI was over 100 µM. `Cc1cccc(NC(=O)C(=O)C(C(=O)c2ccc3ccccc3c2)C2OC(=O)c3ccccc32)c1C` (configuration not stated) gave a TGI of 19.5 µM. Work on `CS/C(N)=N\NC(=O)CCC(=O)Nc1ccccc1C(F)(F)F` yielded a TGI of over 100 µM. With `CC(C)(C)c1ccc2c(c1)S(=O)(=O)Nc1ccccc1NS(=O)(=O)c1cc(C(C)(C)C)ccc1OCCOCCOCCO2` the TGI was over 100 µM. `COc1cc(/C=C/c2cc(/C=C/c3ccc(O)c(OC)c3)n(C(=O)Nc3ccc(F)c(Cl)c3)n2)ccc1O` showed a GI50 of 0.639 µM and a TGI of 3.71 µM. Work on `CC(=O)[O-].CCN(CC)c1ccc(C=NCCN=Cc2ccc(N(CC)CC)cc2[O-])c([O-])c1.[Mn+3]` yielded a GI50 of 19.7 µM and a TGI of 35.9 µM. Work on `NC(N)=N/N=C(\c1nc2ccc([N+](=O)[O-])cc2[nH]c1=O)C(O)c1ccc([N+](=O)[O-])cc1` (configuration not stated) yielded a TGI of 79.8 µM. In the case of `CCC[CH2][Sn]1([CH2]CCC)[O]CC(CN2CCCC2)[O]1` (configuration not stated), the GI50 is reported as 14.3 µM and the TGI is reported as 28.5 µM. Compound `CC1(C)C(=O)N(CCCCCCN2C(=O)C(C)(C)c3ccccc32)c2ccccc21` has a TGI of over 100 µM. With `NCCCCN(CCCN)/[N+]([O-])=N\O` the TGI was over 100 µM. In the case of `CCOc1ccccc1NC(=O)CC(C(=O)OC)C(=O)C(=O)OC` (configuration not stated), the TGI is reported as over 100 µM. With `COc1cccc2c1C(=O)c1c(O)c3c(c(O)c1C2=O)C[C@@](O)(C(C)=O)C[C@@H]3OC1OC(C)C(O)C(N)C1Br` (some centres not stated) the GI50 was 0.168 µM and the TGI was 0.327 µM and 0.489 µM. `COC(=O)C1=C(C)N(NC(=O)OC(C)(C)C)C(=O)C1=P(c1ccccc1)(c1ccccc1)c1ccccc1` gave a TGI of over 100 µM. For `O=C1OC(c2ccccc2)=N/C1=C\c1cccc2ccccc12`, the TGI was over 100 µM. `Cc1cccc(NC(=O)/C(=N\NC(C)(C)C)C2NC(=S)NC2=O)c1C` (configuration not stated) showed a TGI of over 100 µM. In the case of `C[C@@H]1CC(=O)C2CCCC1C2=O` (some centres not stated), the TGI is reported as over 100 µM. `c1ccc(CNn2nnc3ccccc32)cc1` showed a TGI of over 100 µM.

The compounds below were run on HCT-15 colon (assay: NCI-60 cell line screen, 48 h).
Work on `Cc1nc(N)sc1C(=O)/C=C\c1ccc2c(c1)OCO2` yielded a TGI of over 100 µM. `COc1cc(C(C)O)c[n+](CCc2c[nH]c3ccccc23)c1` (configuration not stated) gave a TGI of over 100 µM. `CC1(C)SCc2nc3ncccc3n21` showed a TGI of over 100 µM. Compound `Cn1c(=O)c(C(c2ccc([N+](=O)[O-])cc2)c2c(O)c3ccccc3n(C)c2=O)cc2ccccc21` (configuration not stated) has a TGI of over 100 µM. Compound `Cc1cn(C2CC(O)C(CO)O2)c(=O)n2nnnc12` (configuration not stated) has a TGI of over 100 µM. `COc1ccc(C(=O)C(C(=O)CCC(=O)Nc2cccc(Cl)c2)c2ccc(OC)cc2)cc1` (configuration not stated) gave a TGI of over 100 µM. `CCOC(=O)C1=C(C)N(NC(=O)Nc2ccccc2)C(=O)C1=P(c1ccccc1)(c1ccccc1)c1ccccc1` gave a TGI of over 100 µM. Work on `COc1cc(C=C2C(=O)NC(=O)NC2=O)cc(OC)c1OC` yielded a TGI of over 100 µM. Work on `NCC1Nc2ccccc2[C@@H](O)C1O` (some centres not stated) yielded a TGI of over 100 µM. In the case of `OC[C@H]1CCCC1O` (some centres not stated), the TGI is reported as over 100 µM. `Cc1cccc(N2CCN(C(=S)c3ccc4c(c3)OCO4)CC2)c1` showed a GI50 of 0.625 µM and a TGI of over 100 µM. Compound `Cc1ccc(C2=C(c3ccccc3)C(Br)(c3ccc(C)cc3)C(c3ccccc3)=C2c2ccc(C)cc2)cc1` has a TGI of over 100 µM. For `N#CCN1C(=O)c2cccc3cc([N+](=O)[O-])cc(c23)C1=O`, the TGI was over 100 µM. Work on `Cc1cc(S(=O)(=O)Nc2nnc(-c3ccccc3)c(-c3ccccc3)n2)c(SCC(N)=O)cc1Cl` yielded a GI50 of over 100 µM and a TGI of over 100 µM. For `CC(C)C(Nc1c2ccccc2nc2ccccc12)C(=O)O` (configuration not stated), the TGI was over 100 µM. With `COc1ccccc1CCc1cc(OC)c(OC)c(OC)c1` the TGI was over 100 µM. Work on `COc1cc2c(cc1OC)C(CC(=O)NN=C(C)C)NCC2` (configuration not stated) yielded a TGI of over 100 µM. For `COC(=O)/C(=N\Nc1nnc(C)n1N)C(C#N)c1ccc(Cl)cc1` (configuration not stated), the TGI was over 100 µM. In the case of `Cc1cccc(NC(=O)C(=O)C(C(=O)c2ccc3ccccc3c2)C2OC(=O)c3ccccc32)c1C` (configuration not stated), the TGI is reported as 41.9 µM. Work on `CS/C(N)=N\NC(=O)CCC(=O)Nc1ccccc1C(F)(F)F` yielded a TGI of over 100 µM. Work on `CC(C)(C)c1ccc2c(c1)S(=O)(=O)Nc1ccccc1NS(=O)(=O)c1cc(C(C)(C)C)ccc1OCCOCCOCCO2` yielded a TGI of over 100 µM.
